According to PMC3131601, “A Novel Cold-Active Lipase from Candida albicans: Cloning, Expression and Characterization of the Recombinant Enzyme” (International Journal of Molecular Sciences, 2011):

tested on: T1, Lip5-DM (recombinant Lip5, CALip5); assay: p-nitrophenol release at […] nm, Lineweaver-Burk; format: biochemical, Candida albicans; conditions: 100 mM Na2HPO4-NaH2PO4 pH 6.0; kinetics run at 5, 15 and 25 °C, temperature of table values not stated
T1 construct: putative 14-residue signal peptide removed; secreted from Pichia pastoris X-33 (pGAPZalphaA), about 50 kDa

Which Km does the source give for CCCC(=O)Oc1ccc([N+](=O)[O-])cc1 [C4, p-NP-butyrate] here?
Its Km is 410 µM.

With CCCCCCCC(=O)Oc1ccc([N+](=O)[O-])cc1 [C8, p-NP-caprylate] as the compound, how does the Km read?
The Km was 270 µM.

How did the Km turn out when CCCCCCCCCCCC(=O)Oc1ccc([N+](=O)[O-])cc1 [C12, p-NP-laurate] was run?
The Km was 500 µM.

For CCCCCCCCCCCCCCCC(=O)Oc1ccc([N+](=O)[O-])cc1 [C16, p-NP-palmitate], which Km is on record?
Its Km is 360 µM.
